Patent US20170107179A1 (Tetraphase Pharmaceuticals, Inc., priority 2010, published 2017)

How the values were obtained:
[1] = test system: subset of Gram-negative and Gram-positive isolates; assay: Minimum bactericidal concentration (MBC), CLSI M26-A, selected strains (Table 11)
[2] = test system: E. coli DH10B EC1083 TetB; assay: MIC, E. coli DH10B recombinantly expressing tetracycline-resistance gene; conditions: arabinose-induced, ampicillin in medium
[3] = test system: evaluated pathogens by tetracycline phenotype; assay: Broth microdilution MIC by tetracycline phenotype (Table 14)
[4] = Enterococcus faecium, E. faecium, TET NS, N=40
[5] = Enterococcus faecium, E. faecium, TET S, N=60
[6] = Streptococcus agalactiae, S. agalactiae, TET NS, N=39
[7] = Streptococcus agalactiae, S. agalactiae, TET S, N=11
[8] = Streptococcus pneumoniae, S. pneumoniae, TET NS, N=46
[9] = Streptococcus pneumoniae, S. pneumoniae, TET S, N=54
[10] = Streptococcus pyogenes, S. pyogenes, TET S, N=44

CN(C)[C@@H]1C(O)=C(C(N)=O)C(=O)[C@@]2(O)C(O)=C3C(=O)c4c(O)c5c(c(F)c4C[C@H]3C[C@@H]12)CN(C(C)(C)C)C5 [Compound 102]
0.5 µg/mL: MIC90 [3, 4] | MIC50 ([3]; F. faecalis, TET NS, N=71) | MIC50 [3, 6] | MIC90 [3, 6]
0.25 µg/mL: MIC50 [3, 4] | MIC90 ([3]; F. faecalis, TET S, N=30) | MIC50 ([3]; Streptococcus pyogenes, S. pyogenes, TET NS, N=6)
64: MBC:MIC ([1]; Streptococcus intermedius isolate 2919759)
>16: MBC:MIC ([1]; Escherichia coli isolate 2921525) | MBC:MIC ([1]; Staphylococcus aureus isolate 2919648) | MBC:MIC ([1]; Staphylococcus aureus isolate 2919649) | MBC:MIC ([1]; Staphylococcus aureus isolate 2919650)
89.3%: evaluated isolates with MBC:MIC ratio >2 [1]
bacteriostatic mode of action: mode of action from MBC:MIC ratios [1]
0.12 µg/mL: MIC50 [3, 5] | MIC90 [3, 5] | MIC50 ([3]; F. faecalis, TET S, N=30) | MIC50 [3, 7] | MIC90 [3, 7] | MIC50 [3, 8] | MIC90 [3, 8] | MIC90 [3, 9] | MIC50 [3, 10] | MIC90 [3, 10]
1 µg/mL: MIC90 ([3]; F. faecalis, TET NS, N=71)
>1: MBC:MIC ([1]; Proteus vulgaris isolate 2919822)
32: MBC:MIC ([1]; Shigella species isolate 2920026)
128: MBC:MIC ([1]; Acinetobacter lwoffii isolate 2919860)
1: MBC:MIC ([1]; Acinetobacter lwoffii isolate 2919873) | MBC:MIC ([1]; Enterobacter cloacae isolate 2920119) | MBC:MIC ([1]; Streptococcus mitis isolate 2919781) | MBC:MIC ([1]; Streptococcus mitis isolate 2919798) | MIC EC1083 TetB [2]
>8: MBC:MIC ([1]; Klebsiella pneumonia isolate 2921528) | MBC:MIC ([1]; Klebsiella pneumoniae isolate 2921529) | MBC:MIC ([1]; Stenotrophomonas maltophilia isolate 2920035)
4: MBC:MIC ([1]; Acinetobacter lwoffii isolate 2919857) | MBC:MIC ([1]; Acinetobacter lwoffii isolate 2919875) | MBC:MIC ([1]; Enierobacter cloacae isolate 2920082) | MBC:MIC ([1]; Enterobacter aerogenes isolate 2919909) | MBC:MIC ([1]; Klebsiella oxytoca isolate 2919964) | MBC:MIC ([1]; Proteus vulgaris isolate 2919836) | MBC:MIC ([1]; Salmonella species isolate 2919986) | MBC:MIC ([1]; Salmonella species isolate 2919990) | MBC:MIC ([1]; Salmonella species isolate 2920006) | MBC:MIC ([1]; Salmonella species isolate 2920008) | MBC:MIC ([1]; Serratia marcescens isolate 2920092) | MBC:MIC ([1]; Serratia marcescens isolate 2920109) | MBC:MIC ([1]; Shigella species isolate 2919892) | MBC:MIC ([1]; Streptococcus intermedius isolate 2919819) | MBC:MIC ([1]; Streptococcus mitis isolate 2919763) | MBC:MIC ([1]; Streptococcus sanguis isolate 2919749)
>4: MBC:MIC ([1]; Morganella morganii isolate 2919931) | MBC:MIC ([1]; Morganella morganii isolate 2919935) | MBC:MIC ([1]; Proteus vulgaris isolate 2919835) | MBC:MIC ([1]; Serratia marcescens isolate 2920094)
8: MBC:MIC ([1]; Enterobacter aerogenes isolate 2919900) | MBC:MIC ([1]; Escherichia coli isolate 2921576) | MBC:MIC ([1]; Klebsiella oxytoca isolate 2919956) | MBC:MIC ([1]; Klebsiella oxytoca isolate 2919983) | MBC:MIC ([1]; Shigella species isolate 2920028) | MBC:MIC ([1]; Stenotrophomonas maltophilia isolate 2920051) | MBC:MIC ([1]; Streptococcus anginosus isolate 2919722) | MBC:MIC ([1]; Streptococcus anginosus isolate 2919797) | MBC:MIC ([1]; Streptococcus mitis isolate 2919803)
16: MBC:MIC ([1]; Enterobacter aerogenes isolate 2919913) | MBC:MIC ([1]; Shigella species isolate 2919894) | MBC:MIC ([1]; Streptococcus anginosus isolate 2919742) | MBC:MIC ([1]; Streptococcus intermedius isolate 2919756) | MBC:MIC ([1]; Streptococcus intermedius isolate 2919784) | MBC:MIC ([1]; Streptococcus sanguis isolate 2919758)
>2: MBC:MIC ([1]; Morganella morganii isolate 2919945) | MBC:MIC ([1]; Proteus vulgaris isolate 2919827)
2-4 fold: MICs, fold higher against tetracycline resistant isolates relative to tetracycline susceptible isolates [3]
2: MBC:MIC ([1]; Enterobacter aerogenes isolate 2919897) | MBC:MIC ([1]; Enterobacter cloacae isolate 2920072) | MBC:MIC ([1]; Klebsiella oxytoca isolate 2919972) | MBC:MIC ([1]; Serratia marcescens isolate 2920100) | MBC:MIC ([1]; Shigella species isolate 2920018) | MBC:MIC ([1]; Streptococcus sanguis isolate 2919752)
0.06 µg/mL: MIC50 [3, 9]
